Measurements as given in patent US5618713A, “Mutants of human antithrombin III” (Behringwerke Aktiengesellschaft, priority 1989, dated 1997).

Legend:
Assay type in all cases: biochemical
alpha-thrombin (human) = experiment: dependence of thrombin inactivation on the heparin concentration
Protocol: The two mutants were examined for their relative ability to inactivate thrombin as a function of the heparin concentration in the assay and compared with AT III plasma, AT III-WT and the mutant AT III-Lys49 (Tab. 5).
The assay was carried out under the following conditions: 0.02 U (antigen)/ml AT III (AT III plasma, AT III-WT or AT III-Mut) was preincubated with 0.3 IU/ml alpha-thrombin (human), 2 KIU/ml aprotinin (Behringwerke) and heparin (Hoffmann-LaRoche) in concentrations of 0-25 IU/ml in a volume of I ml at 37° C. for 5minutes. After addition of 100 μl of substrate reagent (2 mM HD-CHA-But-Arg-pNA), the change in extinction at 405 nm (37° C.) was followed kinetically. The maximum inhibition of alpha-thrombin at heparin saturation was set equal to 100%.
Tab. 5 indicates the heparin concentration at half-maximum thrombin inhibition (c 1/2) for AT III plasma, AT III-WT and various AT III mutants.

thrombin = experiment: heparin cofactor activity (Schrader et al. 1986), Berichrom test kit, excess heparin and thrombin; details: purified protein, excess of heparin and thrombin
Protocol: As taught in Schrader et al., for the determination of the heparin cofactor activity of the AT III mutants with the test kit Berichrom® (Behringwerke AG, Marburg) a solution with the particular AT III mutant was incubated with an excess of heparin and thrombin. The produced AT III mutant-heparin-complex inhibits a part of the thrombin. The non-inactivated part of the thrombin cleaves the chromogenic substrate which was added to the solution and the amount of produced p-nitroaniline was measured at 405 nm photometrically.

bovine thrombin = experiment: progressive inhibitory activity (Hensen et al. 1963), rate of thrombin inactivation, clotting time; details: purified protein, without heparin
Protocol: As taught in Hensen et al., progressive inhibiting activity is measured by an antithrombin III assay according to the principle that the material to be tested is incubated with thrombin. The rate of thrombin inactivation is measured and is used as a standard of antithrombin III activity.
In the procedure, a bovine thrombin solution of 50 N.I.H. units/ml, stored at-25° C., after being thawed is kept as melting ice; 0.2 ml of this thrombin solution with 0.6 ml veronal buffer, in a siliconized tube, is placed in a waterbath at 37° C. After a minimum of 2 minutes preheating, 0.2 ml of the material to tested (heat-defibrinated plasma or serum or a plasma fraction) is added to the mixture, and a chronometer is started. Exactly 1, 3 and 5 minutes later, 0.2 ml of this incubation mixture is added to 0.3 ml diluted bovine BaSO4 -plasma which has been pre-heated in the waterbath for 2-20 minutes and kept in non-siliconized tubes. The clotting times obtained are registered. The determination is made in duplicate.
If the antithrombin III activity in the sample tested is found to be low (less than 50% of the normal), then the determination should be repeated with the double quantity of the material to be tested (0.4 ml and 0.4 ml veronal buffer).
In the calculation, three times are obtained per determination. […]

[1] = target: elastase from human polymorphonuclear granulocytes (PMN elastase); experiment: PMN elastase inhibition assay (chromogenic substrate MeO-Suc-Ala-Ala-Pro-Val-pNA)
Protocol: The liberation of the paranitroaniline from the substrate was measured in a spectrophotometer as the increase in absorption at 405 nm within 15 min. This absorption was defined as 100% activity of the PMN elastase enzyme. The inhibitors were preincubated in concentrations increasing up to a maximum of 100 μg/ml with the enzyme for one hour. The enzyme reaction was then started with the substrate. The assay was carried out in 0.1 mol/1 HEPES, pH 7.5, +0.1 mol/1 sodium chloride. The substrate concentration was 0.13 mmol/1.

| IC50, inhibition of PMN elastase ([1]; 1 h preincubation with enzyme, substrate 0.13 mmol/l, 0.1 mol/l HEPES pH 7.5 + 0.1 mol/l NaCl, max. 100 μg/ml) [µg/mL] | type of inhibition of PMN elastase ([1]; KI determination) | Substance | C 1/2 Heparin, heparin concentration at half-maximum relative thrombin inhibition (alpha-thrombin (human); 0.02 U/ml AT III, 0.3 IU/ml alpha-thrombin, heparin 0-25 IU/ml, 5 min 37° C.) [mIU/ml] | inhibition of thrombin at low heparin concentrations (alpha-thrombin (human); compared in words) | HC, heparin cofactor activity (thrombin) [U/mg] | PI, progressive inhibitory activity (bovine thrombin) [U/mg] |
| --- | --- | --- | --- | --- | --- | --- |
|  |  | ATIII-Gln135: AT III mutant with Asn→Gln exchange in position 135, lacking a carbohydrate side-chain | 22 | better than that of AT III plasma and AT III-WT | 4.5 | 3.9 |
| 3.7 | non-competitive inhibition | alpha1 PI: reference inhibitor alpha1 protease inhibitor (alpha1 antitrypsin) |  |  |  |  |
